This is an account of results in patent publication US10894784B2, “Heteroarylbenzimidazole compounds” (BAYER PHARMA AKTIENGESELLSCHAFT, priority 2015, dated 2021).

pIC50: −log10 of the molar value.

Sequence of TBK1 (Q9UHD2 whole entry): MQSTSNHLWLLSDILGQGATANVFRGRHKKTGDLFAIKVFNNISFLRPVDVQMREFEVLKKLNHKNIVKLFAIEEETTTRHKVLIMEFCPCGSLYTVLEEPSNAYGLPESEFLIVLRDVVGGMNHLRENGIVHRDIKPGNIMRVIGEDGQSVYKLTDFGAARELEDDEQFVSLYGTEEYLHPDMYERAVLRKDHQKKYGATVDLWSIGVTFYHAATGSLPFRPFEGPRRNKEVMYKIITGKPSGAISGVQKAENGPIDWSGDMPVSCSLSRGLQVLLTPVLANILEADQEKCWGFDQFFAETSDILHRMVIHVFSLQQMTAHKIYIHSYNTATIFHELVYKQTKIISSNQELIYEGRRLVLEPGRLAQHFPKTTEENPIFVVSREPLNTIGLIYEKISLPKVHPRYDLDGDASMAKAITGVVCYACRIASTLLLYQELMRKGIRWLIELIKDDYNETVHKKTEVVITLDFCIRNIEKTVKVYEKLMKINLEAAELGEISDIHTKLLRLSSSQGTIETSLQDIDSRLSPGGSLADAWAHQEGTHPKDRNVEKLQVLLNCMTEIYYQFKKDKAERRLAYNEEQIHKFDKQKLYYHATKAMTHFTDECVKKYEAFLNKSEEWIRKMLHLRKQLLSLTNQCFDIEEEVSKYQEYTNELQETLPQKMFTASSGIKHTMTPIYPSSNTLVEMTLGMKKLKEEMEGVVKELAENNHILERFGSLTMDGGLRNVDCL

The experiment addresses TBK1 (Homo sapiens (Human), UniProt Q9UHD2). The experiment in a line: TBK1 low ATP kinase assay (in vitro assay 1). It is filed as biochemical. As to conditions: in vitro assay 1, read-out: TBK1 low ATP kinase assay IC50.
The pIC50 is the IC50 on a negative log10 scale, so that one unit is a factor of ten. Regarding `Cc1noc(-c2ccc3nc(Nc4cc(CN5CCN(C(=O)C6CCC6)CC5(C)C)ccn4)[nH]c3c2)n1` [Example 16.04.05, cyclobutyl{3,3-dimethyl-4-[(2-{[6-(3-methyl-1,2,4-oxadiazol-5-yl)-1H-benzimidazol-2-yl]amino}pyridin-4-yl)methyl]piperazin-1-yl}methanone], the negative logarithm of the IC50 (pIC50) is 6.31.
With `COc1nnc(Cl)cc1-c1ccc2nc(Nc3cc(CN4CCN(C(=O)C5CC5)CC4)ccn3)[nH]c2c1` [Example 46.02, {4-[(2-{[6-(6-chloro-3-methoxypyridazin-4-yl)-1H-benzimidazol-2-yl]amino}pyridin-4-yl)methyl]piperazin-1-yl}(cyclopropyl)methanone] the figure was 7.14; with `COc1cc(-c2ccc3nc(Nc4cc(C(C)N5CCN(C(=O)C6CC6)CC5)ccn4)[nH]c3c2)ncn1` (single isomer, unassigned) [Example 34.03.02.A, cyclopropyl{4-[(1R or 1S)-1-(2-{[6-(6-methoxypyrimidin-4-yl)-1H-benzimidazol-2-yl]amino}pyridin-4-yl)ethyl]piperazin-1-yl}methanone], 7.33; with `CCOc1nccc(-c2ccc3nc(Nc4cc(CN5CCN(C(=O)C6CCC6)CC5)ccn4)[nH]c3c2)n1` [Example 26.01.04, cyclobutyl{4-[(2-{[6-(2-ethoxypyrimidin-4-yl)-1H-benzimidazol-2-yl]amino}pyridin-4-yl)methyl]piperazin-1-yl}methanone], 7.94.
On to `Cc1noc(-c2ccc3nc(Nc4cc(CN5CCN(C(=O)CC(F)(F)F)CC5)c(Br)cn4)[nH]c3c2)n1` [Example 125.02, 1-{4-[(5-bromo-2-{[6-(3-methyl-1,2,4-oxadiazol-5-yl)-1H-benzimidazol-2-yl]amino}pyridin-4-yl)methyl]piperazin-1-yl}-3,3,3-trifluoropropan-1-one], for which the pIC50 is 6.19.
`Cc1noc(-c2ccc3nc(Nc4cc(CN5CCN(C(=O)C6CC6)CC5)ccn4)[nH]c3c2C)n1` [Example 54.02, cyclopropyl{4-[(2-{[7-methyl-6-(3-methyl-1,2,4-oxadiazol-5-yl)-1H-benzimidazol-2-yl]amino}pyridin-4-yl)methyl]piperazin-1-yl}methanone]: the pIC50 is 6.64.
`CC(c1ccnc(Nc2nc3ccc(-c4cc(C(F)(F)F)ncn4)c(F)c3[nH]2)c1)N1CCN(C(=O)C2CC2)CC1` (single isomer, unassigned) [Example 173.03, cyclopropyl(4-{(1R or 1S)-1-[2-({7-fluoro-6-[6-(trifluoromethyl)pyrimidin-4-yl]-1H-benzimidazol-2-yl}amino)pyridin-4-yl]ethyl}piperazin-1-yl)methanone]: the pIC50 was 7.30.
To `CC(c1ccnc(Nc2nc3ccc(-c4cc(N5CCOCC5)ncn4)cc3[nH]2)c1)N1CCN(C(=O)C2CC2)CC1` (single isomer, unassigned) [Example 118.02, cyclopropyl(4-{(1R or 1S)-1-[2-({6-[6-(morpholin-4-yl)pyrimidin-4-yl]-1H-benzimidazol-2-yl}amino)pyridin-4-yl]ethyl}piperazin-1-yl)methanone] belongs 8.48.
As to `Cn1ncnc1-c1ccc2nc(Nc3cc(CN4CCN(C(=O)CC(F)(F)F)CC4)ccn3)[nH]c2c1` [Example 41.02, 3,3,3-trifluoro-1-{4-[(2-{[6-(1-methyl-1H-1,2,4-triazol-5-yl)-1H-benzimidazol-2-yl]amino}pyridin-4-yl)methyl]piperazin-1-yl}propan-1-one], the pIC50 was 6.17.
To `CC(c1ccnc(Nc2nc3ccc(-c4cn[nH]c4)cc3[nH]2)c1)N1CCN(C(=O)OC(C)(C)C)CC1` (single isomer, unassigned) [Example 57.01, tert-butyl 4-[(1R or 1S)-1-(2-{[6-(1H-pyrazol-4-yl)-1H-benzimidazol-2-yl]amino}pyridin-4-yl)ethyl]piperazine-1-carboxylate] belongs 8.11; to `CC(c1ccnc(Nc2nc3ccc(-c4cnn(CC5CC5(F)F)c4)cc3[nH]2)c1)N1CCN(C(=O)CC(F)(F)F)CC1` (single isomer, unassigned) [Example 55.02.01, 1-{4-[(1R or 1S)-1-(2-{[6-(1-{[(1R or IS)-2,2-difluorocyclopropyl]methyl}-1H-pyrazol-4-yl)-1H-benzimidazol-2-yl]amino}pyridin-4-yl)ethyl]piperazin-1-yl}-3,3,3-trifluoropropan-1-one], 9.14.
For `CC(C)(C)OC(=O)N1CCN(Cc2ccnc(Nc3nc4ccc(-c5ccnc(N)c5)cc4[nH]3)c2)CC1` [Example 138.01, tert-butyl 4-[(2-{[6-(2-aminopyridin-4-yl)-1H-benzimidazol-2-yl]amino}pyridin-4-yl)methyl]piperazine-1-carboxylate], the pIC50 is 8.24.
`CN(C)c1ncnc(-c2ccc3nc(Nc4cc(CN5CCN(C(=O)OC(C)(C)C)CC5)ccn4)[nH]c3c2)c1Cl` [Example 179.01, tert-butyl 4-{[2-({6-[5-chloro-6-(dimethylamino)pyrimidin-4-yl]-1H-benzimidazol-2-yl}amino)pyridin-4-yl]methyl}piperazine-1-carboxylate]: the pIC50 was 5.52.
To `COc1cncnc1-c1ccc2nc(Nc3cc(CN4CCN(S(=O)(=O)C5CCCCC5)CC4)ccn3)[nH]c2c1` [Example 35.01.13, N-(4-{[4-(cyclohexylsulfonyl)piperazin-1-yl]methyl}pyridin-2-yl)-6-(5-methoxypyrimidin-4-yl)-1H-benzimidazol-2-amine] belongs 7.22; to `CCOc1ncnc(-c2ccc3nc(Nc4cc(CN5CCN(C(=O)C6CC6)CC5)ccn4)[nH]c3c2)c1OC` [Example 167.03, cyclopropyl{4-[(2-{[6-(6-ethoxy-5-methoxypyrimidin-4-yl)-1H-benzimidazol-2-yl]amino}pyridin-4-yl)methyl]piperazin-1-yl}methanone], 7.38; to `O=C(CC1CC1)N1CCN(Cc2ccnc(Nc3nc4ccc(-c5cncnc5)cc4[nH]3)c2)CC1` [Example 45.01.02, 2-cyclopropyl-1-{4-[(2-{[6-(pyrimidin-5-yl)-1H-benzimidazol-2-yl]amino}pyridin-4-yl)methyl]piperazin-1-yl}ethanone], 6.40.
For the compound `CC(c1ccnc(Nc2nc3ccc(-c4ccncn4)cc3[nH]2)c1)N1CCN(C(=O)C2CCC2)CC1` (single isomer, unassigned) [Example 23.05.03.B, cyclobutyl{4-[(1S or 1R)-1-(2-{[6-(pyrimidin-4-yl)-1H-benzimidazol-2-yl]amino}pyridin-4-yl)ethyl]piperazin-1-yl}methanone], the negative-log IC50 (pIC50) is 7.84.
As to `CC(C)Oc1cncnc1-c1ccc2nc(Nc3cc(C(C)N4CCN(C(=O)C5CCC5)CC4)ccn3)[nH]c2c1` (single isomer, unassigned) [Example 36.04, cyclobutyl(4-{(1R or 1S)-1-[2-({6-[5-(propan-2-yloxy)pyrimidin-4-yl]-1H-benzimidazol-2-yl}amino)pyridin-4-yl]ethyl}piperazin-1-yl)methanone], the pIC50 is 8.60.
With `Cc1nnc(-c2ccc3nc(Nc4cc(CN5CCN(C(=O)OC(C)(C)C)CC5)ccn4)[nH]c3c2)o1` [Example 66.01.01, tert-butyl 4-[(2-{[6-(5-methyl-1,3,4-oxadiazol-2-yl)-1H-benzimidazol-2-yl]amino}pyridin-4-yl)methyl]piperazine-1-carboxylate] the figure was 7.48; with `CC(c1ccnc(Nc2nc3ccc(-c4cc(N5CCCC5)ncn4)cc3[nH]2)c1)N1CCN(C(=O)C2(C(F)(F)F)CC2)CC1` (single isomer, unassigned) [Example 117.04, (4-{(1R or 1S)-1-[2-({6-[6-(pyrrolidin-1-yl)pyrimidin-4-yl]-1H-benzimidazol-2-yl}amino)pyridin-4-yl]ethyl}piperazin-1-yl)[1-(trifluoromethyl)cyclopropyl]methanone], 9.09; with `CC(C)Cc1noc(-c2ccc3nc(Nc4cc(CN5CCN(C(=O)C6CC6)CC5)ccn4)[nH]c3c2)n1` [Example 18.02, cyclopropyl(4-{[2-({6-[3-(2-methylpropyl)-1,2,4-oxadiazol-5-yl]-1H-benzimidazol-2-yl}amino)pyridin-4-yl]methyl}piperazin-1-yl)methanone], 6.81.
With `CN(c1cc(-c2ccc3nc(Nc4cc(CN5CCN(C(=O)CC(F)(F)F)CC5)ccn4)[nH]c3c2)ncn1)C1CC1` [Example 157.02, 1-[4-({2-[(6-{6-[cyclopropyl(methyl)amino]pyrimidin-4-yl}-1H-benzimidazol-2-yl)amino]pyridin-4-yl}methyl)piperazin-1-yl]-3,3,3-trifluoropropan-1-one] the figure was 8.05.
For `COc1cnccc1-c1ccc2nc(Nc3cc(CN4CCN(C(=O)C5(C(F)(F)F)CC5)CC4)ccn3)[nH]c2c1` [Example 04.07, {4-[(2-{[6-(3-methoxypyridin-4-yl)-1H-benzimidazol-2-yl]amino}pyridin-4-yl)methyl]piperazin-1-yl}[1-(trifluoromethyl)cyclopropyl]methanone], the pIC50 is 8.00.
With `Cc1noc(-c2ccc3nc(Nc4cc(C(C)N5CCN(C(=O)C6CC6)CC5)ccn4)[nH]c3c2)n1` (racemic) [Example 16.05.03, (rac)-cyclopropyl{4-[1-(2-{[6-(3-methyl-1,2,4-oxadiazol-5-yl)-1H-benzimidazol-2-yl]amino}pyridin-4-yl)ethyl]piperazin-1-yl}methanone] the figure was 7.37; with `Cc1nc(Cl)cc(-c2ccc3nc(Nc4cc(CN5CCN(C(=O)OC(C)(C)C)CC5)ccn4)[nH]c3c2)n1` [Example 186.01, tert-butyl 4-[(2-{[6-(6-chloro-2-methylpyrimidin-4-yl)-1H-benzimidazol-2-yl]amino}pyridin-4-yl)methyl]piperazine-1-carboxylate], 7.23.
With `O=C(CC(F)(F)F)N1CCN(Cc2ccnc(Nc3nc4ccc(-c5c(F)cncc5Cl)cc4[nH]3)c2)CC1` [Example 132.02, 1-{4-[(2-{[6-(3-chloro-5-fluoropyridin-4-yl)-1H-benzimidazol-2-yl]amino}pyridin-4-yl)methyl]piperazin-1-yl}-3,3,3-trifluoropropan-1-one] the figure was 6.72.
